Test results published in patent US11077139B2, “Combination of an arsenic compound and at least one retinoid for treating acute myeloid leukemia” (INSERM (Institut National de la Sante et de la Recherche …, priority 2013, dated 2021).

How the values were obtained:
[1] = tested on: OCI-AML3 cells (mutated NPM-1); assay type: cell-based; settings: addition of the proteasome inhibitor
Protocol: Cells were seeded at a density of 2×10^5/ml. Primary AML cells (from either peripheral blood or BM) were extracted following ficoll separation and cultured in MEM-α supplemented with 20% FBS and antibiotics. […] Cell growth was assessed using the CellTiter 96® cell proliferation assay kit (Promega Corp., Madison, Wis., USA) or by trypan blue dye assay.
Proliferation experiments on cell lines were repeated at least three times. Data are reported as the mean+/−standard error. […] CI was used to assess synergistic effects (CI<1), additive effects (CI=1) or antagonistic effects (CI>1). Two statistical tests were performed to validate significance: the t-test and the one-way analysis of variance (ANOVA) test. *, ** and *** indicate p values≤0.05; 0.01 and 0.001, respectively. p-values less than 0.05 were considered significant.

mutant NPM-1 = experiment: Western blot for NPM-1 and mutated NPM-1; assay type: cell-based
Protocol: Cells were solubilized at 4° C. in lysis buffer. […] Blots were incubated with specific antibodies, washed and proteins were visualized using the ECL chemiluminescence system (Santa Cruz, Germany). The following antibodies were used; monoclonal anti-wt NPM-1 (Abnova, Abcam), polyclonal anti-mutated NPM-1 (Abnova), anti-actin (Santa-cruz, Germany) and anti-GAPDH (Abnova).

Molecule	effect on RA/arsenic-induced growth arrest [1]	effect on RA/arsenic-induced NPM-1 degradation (mutant NPM-1; addition of the proteasome inhibitor)	effect of pre-treatment on arsenic-induced degradation of mutant NPM-1 (mutant NPM-1; data not shown)
CC(C)C[C@H](NC(=O)[C@H](Cc1ccccc1)NC(=O)c1cnccn1)B(O)O [PS-341]	reversed	reversed	–
interferon alpha	–	–	significantly accelerated
